Experimental data from patent US7446125B2, “Derivatives of nitroproline compounds, processes of manufacture and uses in the treatment of integrin mediated disorders” (Universidad del Pais Vasco, priority 2005, dated 2008).

How the values were obtained:
VLA-4 [1] = target: T1, VLA-4 (Mus musculus, UniProt P09055+Q00651); test: B16M (MB16) melanoma cell adhesion to primary cultured hepatic sinusoidal endothelial (HSE) cells; assay type: cell-based, murine; settings: B16M cells preincubated with compound, 50 μg/1×10^6 MB16 cells; TNF-alpha-treated HSE or H2O2-treated B16M cells; FIG. 6
T1 construct: The tumor used is the B16F10 subline of MB16, the VLA-4 expression of which is constitutive; endogenous in cells; host or cells: B16F10 (MB16/B16M) murine melanoma cells; VCAM-1 on primary mouse HSE cells
Protocol: The tumor used is the B16F10 subline of MB16, the VLA-4 expression of which is constitutive.
The MB16 tumor cells (subline B16F10) are cultured in incubator at 37° C., with 5% CO2 atmosphere, in DMEM medium (Dulbecco's modified Eagle's medium), adjusted to pH 7.4 and supplemented with penicillin (100 U/ml), streptomycin (100 μg/ml) and 5% fetal bovine serum. The cells are maintained and subcultured according to a previously-described method (Vidal-Vanaclocha et al. Cancer Research, 1994, 54, 2667).
The hepatic sinusoidal cells are isolated from C57BU6J mice (males, age 6-8 weeks) supplied by IFFA Credo (L'Arbreole, France). For their purification and identification, the previously-described protocol is employed (Vidal-Vanaclocha et al. Hepatology, 1993, 18, 328-339). The primary HSE cell cultures are obtained by seeding the cells on a Type I collagen substrate (Sigma Chemicals Co, St Louis, Mo.) in the presence of DMEM, supplementing with penicillin (100 U/ml), streptomycin (100 μg/ml) and 10% fetal bovine serum, at 37° C. in 5% CO2 atmosphere.
The endothelial cells are isolated 24 hours prior to the adhesion test and are seeded on 24-well plate, maintaining them a minimum of 4 hours in free serum medium before incubating them with DMEM in the presence or not of 10 ng/ml TNF-α for 6 hours. The B16 cells are marked with 40 μg/ml of the BCECF-AM fluorescent probe (carboxyfluorescein, 2′,7′-bis-(2-carboxy-etyl)-5-(6)carboxyfluorescein aminoxymethyl ester), supplied by Molecular Probes Inc. (Oregon, USA). Afterward, a washing with DMEM medium without serum is performed to remove the excess flurorchromium, and the compounds of general formula I are incubated at 37° C. for 15 minutes at the concentration of 50 μg/1×10^6 MB16 cells. This is followed by two washings, the number of visible cells being calculated by means of the trypan blue dye exclusion test, and they are resuspended to a concentration of 2×10^5 cells/ml. One (1) ml of the MB16 cell suspension is added to each well on the primary HSE cell culture plate, and the co-cultures are incubated at 37° C. for 8 minutes. The percentage of cellular adhesion is calculated by means of a previously-described fluorescence measurement system (Vidal-Vanaclocha et al. Cancer Research, 1994, 54, 2667).
Next, the potential VLA-4 antagonism of compounds 11 was tested through a previously established model on VLA-4NCAM-1-interaction-dependent B16M cell adhesion to primary cultured hepatic sinusoidal endothelial (HSE) cells in vitro.

B16M cells [2] = test: Hepatic metastasis of intrasplenically injected, compound-pretreated B16M cells; assay type: in vivo, C57BU6J mice; settings: mice intrasplenically injected with pretreated B16M cells relative to untreated cells; P<0.01; FIG. 7
Protocol: A description is provided in following of the effect of the le compound on the metastatic capacity of MB16 in in-vivo tests. For this purpose, the MB16 cells treated with le are inoculated intrasplenically in C57BU6J mice (3×10^5 viable cells per animal, resuspended in endotoxin-free sterile saline solution), and the microvascular retention within the first 18 hours and their ability to develop metastasis on day 12 following the tumor injection is determined.
(§1) B16M cells were cultured for 24 hours in the presence 50 μg/ml of compound 11d, or […] anti-murine VLA-4 antibody. Cultured cells were fixed and processed for the immunohistochemical detection of Ki-67 antigen expression. Next, a computed-aid microscopic image analysis system was used to discriminate stained cells (brown nuclei) and calculate the average number of Ki-67 antigen-expressing cells per 1×10^4 cells. The results are the mean±SD of 6 independent fields, from 3 different experiments (n=18).

[3] = tested on: VEGF production by soluble VCAM-1-stimulated B16M cells; test: VEGF production by soluble VCAM-1-treated B16M cells in vitro; assay type: cell-based, murine; settings: soluble VCAM-1-stimulated cells; FIG. 4
VLA-4 [4] = target: T1, VLA-4; test: B16M (MB16) cell adhesion to immobilized recombinant human VCAM-1; assay type: cell-based, murine; settings: IL-1b (interleukin-1b)-treated melanoma cells; FIG. 3
B16M cells [5] = test: Cell viability, cytotoxicity, intracellular oxidative metabolism and proliferation rate of treated melanoma cells; assay type: cell-based, murine
Protocol: as §1

Solubility in water = assay type: physicochemical; settings: compared with 11f

T1 sequence (Q00651 41-1039): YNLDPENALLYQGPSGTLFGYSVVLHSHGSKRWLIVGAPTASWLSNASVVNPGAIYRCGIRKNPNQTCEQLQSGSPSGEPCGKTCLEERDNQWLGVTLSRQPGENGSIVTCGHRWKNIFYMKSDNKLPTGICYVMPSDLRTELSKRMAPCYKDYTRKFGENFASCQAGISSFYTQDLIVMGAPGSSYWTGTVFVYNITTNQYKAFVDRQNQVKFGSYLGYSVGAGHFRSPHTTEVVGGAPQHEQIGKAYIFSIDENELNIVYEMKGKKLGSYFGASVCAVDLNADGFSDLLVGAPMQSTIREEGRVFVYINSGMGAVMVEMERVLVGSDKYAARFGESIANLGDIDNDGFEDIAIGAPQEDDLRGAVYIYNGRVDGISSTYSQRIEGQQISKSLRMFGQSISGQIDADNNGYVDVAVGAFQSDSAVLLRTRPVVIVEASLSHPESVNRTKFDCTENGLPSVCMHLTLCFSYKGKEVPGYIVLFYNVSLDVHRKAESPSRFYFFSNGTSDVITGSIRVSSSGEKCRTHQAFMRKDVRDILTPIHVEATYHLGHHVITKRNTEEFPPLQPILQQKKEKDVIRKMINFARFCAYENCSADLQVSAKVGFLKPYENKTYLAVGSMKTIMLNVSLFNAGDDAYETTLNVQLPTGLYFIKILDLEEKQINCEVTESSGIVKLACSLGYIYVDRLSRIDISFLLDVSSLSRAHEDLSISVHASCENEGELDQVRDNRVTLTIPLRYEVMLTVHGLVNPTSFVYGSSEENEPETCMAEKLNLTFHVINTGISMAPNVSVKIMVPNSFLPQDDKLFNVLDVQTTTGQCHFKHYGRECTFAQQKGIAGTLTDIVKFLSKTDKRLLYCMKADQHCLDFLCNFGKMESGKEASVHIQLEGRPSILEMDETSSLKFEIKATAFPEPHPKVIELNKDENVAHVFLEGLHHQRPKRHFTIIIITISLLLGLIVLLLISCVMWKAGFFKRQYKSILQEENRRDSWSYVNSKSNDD
T1 sequence (P09055 21-798): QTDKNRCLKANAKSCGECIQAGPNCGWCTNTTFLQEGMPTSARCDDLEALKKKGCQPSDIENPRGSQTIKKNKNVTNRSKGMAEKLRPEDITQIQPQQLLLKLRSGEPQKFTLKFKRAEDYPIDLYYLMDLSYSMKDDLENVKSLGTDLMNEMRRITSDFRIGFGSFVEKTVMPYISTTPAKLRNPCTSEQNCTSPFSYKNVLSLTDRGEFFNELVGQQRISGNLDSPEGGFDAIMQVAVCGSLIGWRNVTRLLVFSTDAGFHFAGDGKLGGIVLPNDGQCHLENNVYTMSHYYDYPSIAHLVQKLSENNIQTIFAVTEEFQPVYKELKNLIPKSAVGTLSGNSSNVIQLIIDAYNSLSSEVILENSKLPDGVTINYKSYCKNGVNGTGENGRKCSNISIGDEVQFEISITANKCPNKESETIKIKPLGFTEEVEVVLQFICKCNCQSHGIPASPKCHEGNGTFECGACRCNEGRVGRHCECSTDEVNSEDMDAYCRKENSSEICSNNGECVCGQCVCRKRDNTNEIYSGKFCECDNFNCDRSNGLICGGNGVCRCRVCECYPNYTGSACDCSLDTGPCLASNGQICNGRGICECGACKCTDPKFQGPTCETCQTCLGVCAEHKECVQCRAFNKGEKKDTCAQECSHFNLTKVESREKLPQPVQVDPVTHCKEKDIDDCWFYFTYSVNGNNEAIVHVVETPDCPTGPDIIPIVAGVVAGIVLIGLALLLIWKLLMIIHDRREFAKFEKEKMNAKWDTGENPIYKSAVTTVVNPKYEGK

CC[C@H](C)[C@H](OCc1ccccc1)[C@H]1[C@H]([N+](=O)[O-])[C@H](C2CCCCC2)N[C@@H]1C(=O)NCC(=O)O [Compound 11f, 2-[(2S,3R,4S,5S)-3-[(1S,2S)-1-(benzyloxy)-2-methylbutyl]-5-cyclohexyl-4-nitropyrrol-idine-2-carboxamido]acetic acid]
antiadhesive activity (B16M cell adhesion to HSE cells) (VLA-4 [1]): best activity in vitro

CC[C@H](C)[C@H](OCc1ccccc1)[C@H]1[C@H]([N+](=O)[O-])[C@H](c2ccccc2)N[C@@H]1C(=O)NCC(=O)O [Compound 11d, 2-[(2S,3R,4S,5S)-3-[(1S,2S)-1-(Benzyloxy)-2-methylbutyl]-4-nitro-5-phenyl-pyrrolidine-2-carboxamido]acetic acid]
decrease of metastasis density (B16M cells [2]): 60%
decrease of metastasis volume (B16M cells [2]): 95%
VEGF production induced by soluble VCAM-1 [3]: prevented
adhesion of melanoma cells to immobilized VCAM-1 (VLA-4 [4]): completely abrogated
cell viability and cytotoxicity, intracellular oxidative metabolism, cell-proliferation rates (B16M cells [5]): excluded that antimetastatic effects of 11d compound may have been caused by indirect effects on cell functions
solubility in water (Solubility in water): higher solubility in water
antiadhesive activity (B16M cell adhesion to HSE cells) (VLA-4 [1]): comparable antiadhesive activity to monoclonal antibodies against murine VLA-4

CC[C@H](C)[C@H](OCc1ccccc1)[C@@H]1[C@H]([N+](=O)[O-])[C@H](c2ccccc2)N[C@]1(C)C(=O)NCC(=O)O [Compound 11j, 2-[(2S,3R,4S,5S)-3-[(1S,2S)-1-(Benzyloxy)-2-methylbutyl]-2-methyl-4-nitro-5-phenyl-pyrrolidine-2-carboxamido]acetic acid]
antiadhesive activity (B16M cell adhesion to HSE cells) (VLA-4 [1]): did not result in a significant loss of activity

CC(C)[C@H](OCc1ccccc1)[C@H]1[C@H]([N+](=O)[O-])[C@H](C(C)(C)C)N[C@@H]1C(=O)NCC(=O)O [Compound 11b, 2-[(2S,3R,4S,5S)-5-tert-Butyl-3-[(S)-1-(benzyloxy)-2-methylpropyl]-4-nitropyrrolidine-2-carboxamido]acetic acid]
melting point: 119 to 120 °C
antiadhesive activity (B16M cell adhesion to HSE cells) (VLA-4 [1]): did not show any significant antiadhesive activity

CC(C)[C@H](OCc1c(F)cccc1F)[C@H]1[C@H]([N+](=O)[O-])[C@H](c2ccccc2)N[C@@H]1C(=O)NCC(=O)O [Compound 11e, 2-[(2S,3R,4S,5S)-3-[(S)-1-(2,6-Difluorobenzyloxy)-2-methylpropyl]-4-nitro-5-phenyl-pyrrolidine-2-carboxamido]acetic acid]
antiadhesive activity (B16M cell adhesion to HSE cells) (VLA-4 [1]): almost inactive

CC[C@H](C)[C@H](OCc1ccccc1)[C@H]1[C@H]([N+](=O)[O-])[C@H](C2CC2)N[C@@H]1C(=O)NCC(=O)O [Compound 11h, 2-[(2S,3R,4S,5S)-3-[(1S,2S)-1-(benzyloxy)-2-methylbutyl]-5-cyclopropyl-4-nitropyrrol-idine-2-carboxamido]acetic acid]
antiadhesive activity (B16M cell adhesion to HSE cells) (VLA-4 [1]): did not show any significant antiadhesive activity
